Measurements from patent US5928860A, “Process for determining the tolerance, or toxicity of gaseous, liquid and/or viscous substances for the human or animal organism” (priority 1997, dated 1999).

How the values were obtained:
[1] = system: explants of neonatal rabbit kidneys; assay type: cell-based
Excerpt: An interactive tissue culture system was established for testing of toxicity. The culture system should provide information on whether the action of the substance perfluorophenathrene which changes the vessels can be established in vitro. Explants of neonatal rabbit kidneys were chosen as the test tissue. Antibodies for detection of vessels in the rabbit tissues are available in laboratory. In addition, the vascular system in this tissue has an extraordinarily high degree of spacial order. The preservation of the structure of the vascular system after application of the test substance was the parameter for assessment of the toxic effect in this test.
Tissue preparation: One to three day old rabbits were sacrificed by cervical dislocation. Organ explants were prepared immediately after removal of the kidneys.
The kidneys of neonatal rabbits are not yet completely developed. In the outermost region of the organ directly under the organ capsule, all nephron developments stages are found in addition to the embryonal tissue. Microsurgical organ explants were prepared from this region. To do this the kidneys were cut in half lengthwise. With fine tweezers the thin organ capsule was removed. With the organ capsule, the renal tissue still in development was detached. Proteases were not used in this preparation method, i.e. the organ-typical extracellular matrix and the intercellular connections remained intact. The organ explants were then stretched onto the retaining ring system.
Culture of the kidney explants: By using a retaining ring system it was possible to use tissue explants which had been […] for the tests. The tissue fragment was prepared in the corresponding size and fixed in the retaining ring. Proteolytic disintegration of the tissue, as can be necessary for culture in the conventional culture dish applications, was not carried out. The tissue fragment stretched onto the retaining ring was brought into contact with the tissue top or bottom with the test substance. The tissue top was defined as the side covered by the organ capsule. The tissue bottom was the tissue side exposed by the preparation. The tissue explants prepared in this way were cultivated with continuous throughflow of the medium. Use of perfusion culture technique in this case enabled complete abandonment of additives of fetal calf serum, adult serum or tissue extracts. The medium consists of a commercially available basic medium (Iscove's Modified Dulbecco's Medium, IMDM) to which the hormones aldosterone (10^-7 M) and 1.25 dihydroxyvitamin D3 (10^-9 M) have been added. In the presence of these hormones the structure of the renal tissue is completely preserved. Necroses were not observed even after culture times of more than 10 days.
For the perfusion culture, stretched explant 5 (organ samples) were inserted into the gradient chamber so that one upper and one lower compartment 6 or 7 are formed which are separated from one another by tissue 5. Upper compartment 6 was filled with the given test substance and no flow takes place through it in the experiment since the test substance was of viscous consistency. Throughflow of the test substance however would be possible in the application of liquid or gaseous substances.
Lower compartment 7 was filled with nutrient solution which was continuously pumped through the chamber compartment. Storage bottle 13 of the medium was connected via a hose connection 11 to the inlet 8 of lower chamber 7. Chamber outflow 9 was connected to the waste bottle. Storage bottle 13 was kept at 4° C. during the entire culture time. Supply hose 11 was inserted into 12 which ensured constant flushing of chamber with medium at 1 ml/h. […] Fundamentally other flow rates are possible. […]

rabbit eye [2] = assay: test of vitreous body replacements in the rabbit eye (animal test)
rabbit eye [3] = settings: in vivo

Excerpt for tumor cells: In this example, two of these replacements (the substances perfluorophenathrene and perfluorodecaline) were studied. The substances have been tested in a cell culture system.
Cell culture systems are outstandingly suited for detection of acute toxic effects. They allow prompt testing of the direct toxic effect. If the toxicity of a substance is however based on cellular interactions, other systems must be used for analysis.

Row | SMILES | Expression of EC 1 antigen [1] | Tissue structure [1] | Vascular structure [1] | preservation of the vascular network / vascular system in renal explants [1] | tolerance in animal test (rabbit eye [2]) | toxic effects in cell culture (tumor cells) | damage to the retina or eye (rabbit eye [3]) | expression of the EC 1 antigen / detection of endothelial cells [1]
1 | FC1(F)C(F)(F)C(F)(F)C2(F)C(F)(F)C(F)(F)C(F)(F)C(F)(F)C2(F)C1(F)F (stereo not shown) [Perfluorodecaline, perfluorodecaline] | + | + | + | excellent preservation of the vascular system | good tolerance | no indications of toxic effects |  | 
2 | FC1(F)C(F)(F)C(F)(F)C2(F)C(F)(C1(F)F)C(F)(F)C(F)(F)C1(F)C(F)(F)C(F)(F)C(F)(F)C(F)(F)C12F (stereo not shown) [Perfluorophenathrene, perfluorophenathrene] | + |  | - |  |  |  | major damage to the eye | expression of the EC 1 antigen was not influenced
